{"source": "patent US6858579B2", "about": "“Anti-inflammatory compounds” (William Harvey Research Limited, priority 2001, dated 2005)", "key": {"PMN migration": {"tested_on": "PMN migration", "assay": "Mouse air-pouch model, zymosan-induced PMN migration", "type": "in vivo, mice", "settings": "for activity in the in vivo animal model of inflammation: mouse air-pouch model, peptide s.c., result in words; for Approximate ED50, inhibition of PMN migration: mouse air-pouch, peptide s.c. 30 min prior to 1 mg zymosan, PMN counted 4 h after zymosan, n=15, P<0.01", "experimental": "Male Swiss Albino mice (20-22 g body weight) were purchased from Interfauna (CFLP strain; Huntingdon, Cambridgeshire, UK) and maintained on a standard chow pellet diet with tap water ad libitum. Animals were used at least one week after arrival.\nAir-pouches were formed on the back of the mice by subcutaneous (s.c.) injection of 2.5 ml or air on day […]. Three days after the last air-injection (6-day-old air-pouches) 1 mg of zymosan (in 0.5 ml of sterile saline) was injected locally (Perretti et al., 1996). Zymosan was previously boiled for 30 min in phosphate buffered solution (PBS), extensively washed in the same medium and stored at −20° C. prior to use.\nFour hours after the local injection of zymosan, mice were killed by CO2 exposure and the air-pouches washed with 2 ml of PBS containing ethylenediaminetetracetic acid sodium salt (EDTA; 3 mM) and heparin (25 U/ml).\nLavage fluids (essentially the entire 2 ml were consistently recovered) were centrifuged at 200 g for 10 min at 4° C. and cell pellets were resuspended in 2 ml of PBS/EDTA+heparin. The number of PMN was determined, using a Neubauer haematocytometer, after staining (1:10 dilution) with Turk's solution (crystal violet 0.01% w/v in acetic acid 3% v/v).\nThe following peptides were drawn from the lipocortin 1 N-terminus region: LC12-26 (Ac-[…] (SEQ ID NO:6)), LC12-12 (Ac-AMVSEFLKQAW (SEQ ID NO:4)), LC1 13-25 (FIENEEQEYVQTV (SEQ ID NO:7)), LC12-6(Ac-AMVSE ((SEQ ID NO 3))), or scramble LC12-6 (AC-SVEMA (SEQ ID NO:5)) were administered s.c. 30 min prior to injection of 1 mg zymosan into the air-pouches. Control mice were treated with sterile PBS (100 μl s.c.)."}, "A549 cell line": {"tested_on": "A549 cell line", "settings": "in vitro A549 model; previous publications (Croxtall et al., 1993, 1998); result in words; cited from earlier work"}}, "note": "Where no end group is shown, it is not given here.", "data": [{"substance": "AC-SVEMA (SEQ ID NO:5) (Ac-SVEMA) [scrambled version of AMVSE, reference compound]", "values": [{"measurement": "activity in the in vivo animal model of inflammation", "setting": "PMN migration", "value": "inactive"}]}, {"substance": "Ac-AMVSEFLKQAW (SEQ ID NO:4) [LC12-12, N-acetylated lipocortin 1 fragment, residues 2-12]", "values": [{"measurement": "activity in the in vivo animal model of inflammation", "setting": "PMN migration", "value": "active"}, {"measurement": "Approximate ED50, inhibition of PMN migration", "setting": "PMN migration", "value": "~110", "unit": "nmol"}]}, {"substance": "Ac-AMVSEFLKQAWFIENEEQEYVQTVK (SEQ ID NO:6) [LC12-26, reference compound]", "values": [{"measurement": "Approximate ED50, inhibition of PMN migration", "setting": "PMN migration", "value": "~45", "unit": "nmol"}]}, {"substance": "Ac-AMVSE ((SEQ ID NO 3)) [LC12-6, N-acetylated lipocortin 1 fragment, residues 2-6]", "values": [{"measurement": "activity in the in vivo animal model of inflammation", "setting": "PMN migration", "value": "active"}, {"measurement": "Approximate ED50, inhibition of PMN migration", "setting": "PMN migration", "value": "~110", "unit": "nmol"}]}, {"substance": "EQEYVQTV (SEQ ID NO:2) [LC118-25, lipocortin 1 fragment, residues 18-25]", "values": [{"measurement": "inhibitory effect on A549 cell function", "setting": "A549 cell line", "value": "significant inhibitory activity"}]}]}
